These results are taken from patent US6794378B2, “Heterocyclic compounds and medical use thereof” (Ajinomoto Co., Inc., priority 1999, dated 2004).

≈ marks a conversion by molar mass, not a printed value.

One test concerns NF-kappa B transcriptional activity. The test is described as follows: Evaluation of the NF-kappa B inhibition (β-gal reporter in immortalized HUVEC, IL-1 β induced). The note with it: Homo sapiens; HUVEC NF-kappaB β-gal reporter cells; IL-1 β induction; β-gal activity determined 16 hours after; read-out: NFkB inhibition activity IC50. The class given is cell-based. The protocol:
Evaluation of the NF-kappa B Inhibition
Cells used for the tests were those prepared by stably introducing E. coli β-galactosidase (β-gal) genes driven by SV 40 minimum promoter fused with 6 tandems of the NF-KappaB binding motif derived from immunoglobulin kappa light chain enhancer into human normal umbilical cord vein endothelial cells (HUVEC) immortalized with SV 40 large T antigen. The cells were subcultured in RPMI medium containing 10% of FBS, and were seeded on a 96-well plate in a concentration of 1×10^4/well on a day before the start of the experiments. A compound of the present invention was dissolved in DMSO to obtain a solution of a proper concentration, which was added into the 96-well plate so that the final DMSO concentration would be not higher than 1%. 30 minutes after the addition of the compound, in order to induce NF-kappa B transcriptional activity, […] of IL-1 β was added to each well so as to obtain the final concentration of […]. β-gal activity was determined 16 hours after with a chemiluminescent substrate (Galacton-Light-Plus: Boehringer Mannheim) according to a protocol attached to the reagent. A Luminescence detector (ATTO) was used for the determination.
On to `CC1(C)CC1C(=O)Nc1ccc(Oc2ccc(NC(=O)C3CC3(C)C)cn2)cc1` (stereo not shown) [Example 1], for which the IC50 came to 0.5 µg/mL (≈ 1.27 µM).
With `CC1(C)CC1C(=O)Nc1ccc(Sc2ccc(NC(=O)C3CC3(C)C)cn2)cc1` (stereo not shown) [Example 2], the IC50 is 0.3 µg/mL (≈ 0.733 µM).
As to `CC1(C)CC1C(=O)Nc1ccc(Nc2ccc(NC(=O)C3CC3(C)C)cn2)cc1` (stereo not shown) [Example 3], the IC50 came to 0.8 µg/mL (≈ 2.04 µM).
As to `CC1(C)CC1C(=O)Nc1ccc(C(O)c2ccc(NC(=O)C3CC3(C)C)nc2)cc1` (stereo not shown) [Example 4], the IC50 stood at 1 µg/mL (≈ 2.45 µM).
On to `CC1(C)CC1C(=O)Nc1ccc(Cc2ccc(NC(=O)C3CC3(C)C)nc2)cc1` (stereo not shown) [Example 5], for which the IC50 was determined as 0.9 µg/mL (≈ 2.3 µM).
Turning to `CC1(C)CC1C(=O)Nc1ccc(C(O)c2ccc(NC(=O)C3CC3(C)C)cn2)cc1` (stereo not shown) [Example 6], the IC50 turned out to be 0.4 µg/mL (≈ 0.982 µM).
Regarding `CC1(C)CC1C(=O)Nc1ccc(Cc2ccc(NC(=O)C3CC3(C)C)cn2)cc1` (stereo not shown) [Example 7], the IC50 worked out at 1.5 µg/mL (≈ 3.83 µM).
`CC1(C)CC1C(=O)Nc1ccc(Oc2ccc(NC(=O)C3CC3(C)C)nn2)cc1` (stereo not shown) [Example 8]: the IC50 was 1.5 µg/mL (≈ 3.8 µM).
The same measure, in the same setting: the value for `CC1(C)CC1C(=O)Nc1ccc(Nc2ncc(NC(=O)C3CC3(C)C)cn2)cc1` (stereo not shown) [Example 9] was 0.7 µg/mL (≈ 1.78 µM); that for `CC1(C)CC1C(=O)Nc1ccc(CSc2ccc(NC(=O)C3CC3(C)C)cn2)cc1` (stereo not shown) [Example 14] was 0.015 µg/mL (≈ 0.0354 µM).
As for `Cc1cc(Oc2ccc(NC(=O)C3CC3(C)C)cn2)ccc1NC(=O)C1CC1(C)C` (stereo not shown) [Example 22], the IC50 came to 0.15 µg/mL (≈ 0.368 µM).
As for `O=C(Nc1ccc(Oc2ccc(NC(=O)C3CC3(Cl)Cl)cn2)cc1)C1CC1(Cl)Cl` (stereo not shown) [Example 26], the IC50 was determined as 0.15 µg/mL (≈ 0.316 µM).
On the same count and under the same terms, the value for `CC1CCCCC1C(=O)Nc1ccc(Oc2ccc(NC(=O)C3CCCCC3C)cn2)cc1` (stereo not shown) [Example 29] was 1 µg/mL (≈ 2.22 µM); that for `CC1(C)CC1C(=O)Nc1ccc(Oc2ccc(NC(=O)c3ccccc3)cc2)nc1` (stereo not shown) [Example 31] was 1.5 µg/mL (≈ 3.74 µM); that for `CC1(C)CC1C(=O)Nc1ccc(Oc2ccc(NC(=O)Cc3ccccc3)cc2)nc1` (stereo not shown) [Example 32] was 0.1 µg/mL (≈ 0.241 µM).
As to `CC1(C)CC1C(=O)Nc1ccc(Oc2ccc(NC(=O)Cc3ccc(Cl)cc3)cc2)nc1` (stereo not shown) [Example 33], the IC50 stood at 0.2 µg/mL (≈ 0.445 µM).
Regarding `COc1ccc(CC(=O)Nc2ccc(Oc3ccc(NC(=O)C4CC4(C)C)cn3)cc2)cc1` (stereo not shown) [Example 34], the IC50 turned out to be 0.3 µg/mL (≈ 0.673 µM).
As to `CC1(C)CC1C(=O)Nc1ccc(Oc2ccc(NC(=O)CCCc3ccccc3)cc2)nc1` (stereo not shown) [Example 37], the IC50 was found to be 0.09 µg/mL (≈ 0.203 µM).
Regarding `CC1(C)CC1C(=O)Nc1ccc(Oc2ccc(NCCc3ccccc3)cc2)nc1` (stereo not shown) [Example 38], the 50% inhibitory concentration (IC50) was determined as 0.05 µg/mL (≈ 0.125 µM).
Same read-out and setting: the result for `CC1(C)CC1C(=O)Nc1ccc(Oc2ccc(NCCCc3ccccc3)cc2)nc1` (stereo not shown) [Example 39] reads 0.035 µg/mL (≈ 0.0842 µM).
As for `CC1(C)C[C@@H]1C(=O)Nc1ccc(Oc2ccc(NC(=O)[C@H]3CC3(C)C)cn2)cc1` [Example 43], the IC50 was found to be 0.25 µg/mL (≈ 0.635 µM).
In the case of `CC1(C)C[C@@H]1C(=O)Nc1ccc(Oc2ccc(NC(=O)[C@@H]3CC3(C)C)cc2)nc1` [Example 44], the IC50 was determined as 0.1 µg/mL (≈ 0.254 µM).
Turning to `CC1(C)C[C@@H]1C(=O)Nc1ccc(Oc2ccc(NC(=O)[C@@H]3CC3(C)C)cn2)cc1` [Example 45], the IC50 is 1 µg/mL (≈ 2.54 µM).

The next test relates to anti-TTx antibody titer. The test is described as follows: Antibody titer inhibition test (TTx-sensitized monkeys, ELISA). As to conditions: Rhesus monkeys, 50 mg/kg orally twice daily for 4 weeks from TTx sensitization. Type of test: in vivo. The protocol:
(§1) An antibody titer inhibition test and a delayed-type hypersensitivity reaction inhibition test
(§2) Rhesus monkeys (female, aged four to six) subjected to the test were sensitized with 6Lf of TTx (Tetanus Toxoid) both in the back skin and in the femur muscle under anesthesia by an intramuscular injection of ketamine. The subject drug at the dose of 50 mg/kg had been administered twice daily (7:00 am and 7:00 pm) for 4 weeks starting at the day of TTx sensitization. The drug was suspended with 0.5% Tween 80 solution and was orally administered using a gastric catheter. The control animals were administered with the vehicle in the same manner as those for the test article. One ml of blood was drawn from femoral vein of each animal twice a week to obtain sera with which the anti-TTx antibody titer was evaluated by the ELISA method. The antibody titer was determined with OD of serially-diluted serum from 1:100 by 2 times and was defined as the degree of dilution reaching to “an average OD of the antibody before immunization+2×SD”. One hour after the final administration in the morning on day 28, TTx was challenged once in the thoracic skin (10, 3, 1, 0.3, 0.1, 0.03 Lf/ml, 10 μl/site), and skin reactions at the injection sites were observed 24 and 48 hours after the TTx challenge. The delayed-type hypersensitivity reaction was scored according to the Draize dermal test criteria.
For the molecule `CC1(C)C[C@@H]1C(=O)Nc1ccc(Oc2ccc(NC(=O)[C@H]3CC3(C)C)cn2)cc1` [Example 43], the “inhibiting effect on anti-TTx antibody titer” value is given as “exhibited its inhibiting effect”.

The subject of a further test is delayed-type hypersensitivity reaction. The test is described as follows: Delayed-type hypersensitivity reaction inhibition test (TTx challenge in thoracic skin). As to conditions: Rhesus monkeys, 50 mg/kg orally twice daily for 4 weeks; TTx challenge day 28, skin reactions 24 and 48 hours after, Draize criteria. Type of test: in vivo. On the procedure: as §1, §2
As for `CC1(C)C[C@@H]1C(=O)Nc1ccc(Oc2ccc(NC(=O)[C@H]3CC3(C)C)cn2)cc1` [Example 43], the “inhibiting effect on delayed-type hypersensitivity reaction” value was “exhibited its inhibiting effect”.
